What was measured:
[1] = test system: D3R; settings: concentrations up to 1 μM, data not shown; ref 22 (McCall et al. 2005); cited from earlier work
[2] = biological target: D3R; settings: read-out: Ki at D3R, previously reported; using [3H]spiperone; cited from earlier work
[3] = biological target: hD3R (Homo sapiens, UniProt P35462); assay: biochemical; type: binding
[4] = biological target: hD2R (Homo sapiens, UniProt P14416); assay: biochemical; type: binding
hD2R, sequence (P14416 whole entry): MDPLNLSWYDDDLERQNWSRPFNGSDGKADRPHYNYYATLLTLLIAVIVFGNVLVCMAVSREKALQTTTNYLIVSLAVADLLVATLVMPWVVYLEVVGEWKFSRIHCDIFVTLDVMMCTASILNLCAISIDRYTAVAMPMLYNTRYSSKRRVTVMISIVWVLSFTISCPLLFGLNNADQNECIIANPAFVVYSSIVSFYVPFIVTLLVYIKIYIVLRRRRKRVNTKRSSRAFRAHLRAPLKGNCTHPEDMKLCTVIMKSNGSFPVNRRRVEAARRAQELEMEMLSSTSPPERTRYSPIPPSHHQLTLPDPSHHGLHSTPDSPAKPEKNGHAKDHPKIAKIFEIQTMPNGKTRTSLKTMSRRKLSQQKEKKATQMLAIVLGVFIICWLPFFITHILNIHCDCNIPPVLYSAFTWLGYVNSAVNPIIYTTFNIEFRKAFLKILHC

hD3R, sequence (P35462 whole entry): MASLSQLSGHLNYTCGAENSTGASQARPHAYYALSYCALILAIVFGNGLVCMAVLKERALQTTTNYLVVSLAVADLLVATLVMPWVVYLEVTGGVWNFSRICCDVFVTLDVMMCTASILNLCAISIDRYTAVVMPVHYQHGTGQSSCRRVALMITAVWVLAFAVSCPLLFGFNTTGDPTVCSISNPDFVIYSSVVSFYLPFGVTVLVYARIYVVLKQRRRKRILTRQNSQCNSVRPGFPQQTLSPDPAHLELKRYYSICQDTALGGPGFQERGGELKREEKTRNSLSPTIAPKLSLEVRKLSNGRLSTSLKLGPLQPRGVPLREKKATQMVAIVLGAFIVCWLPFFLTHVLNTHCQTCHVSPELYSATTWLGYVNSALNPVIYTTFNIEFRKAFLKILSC

## CN[C@@H]1Cc2cccc3[nH]c(=O)n(c23)C1 [Compound 1, (R)-5,6-dihydro-5-(methylamino)-4H-imidazo[4,5,1-ij]quinolin-2(1H)-one (Z)-2-butenedioate]
[1]
  activity in D3R-mediated mitogenesis assay, previously reported: no activity was observed
[2]
  Ki: 1940 nM

## N[C@@H]1Cc2cccc3[nH]c(=O)n(c23)C1 [Compound 12a, (R)-5-Amino-5,6-dihydro-4H-imidazo[4,5,1-ij]quinolin-2(1H)-one]
[3]; [3H]7-OH-DPAT as tracer
  fold reduction of D3R affinity relative to 1: ~6 fold
[4]
  fold reduction of D2R affinity relative to 1: ~6 fold

## CCCN(CCC)[C@@H]1Cc2cccc3nc(O)n(c23)C1 [Compound 14a, (R)-5-(Dipropylamino)-5,6-dihydro-4H-imidazo[4,5,1-ij]quinolin-2(1H)-one]
[4]
  fold decrease of D2R affinity relative to 13: ~4 fold

## CCCN(C)[C@@H]1Cc2cccc3[nH]c(=O)n(c23)C1 [Compound 14c, (R)-5-[Methyl(propyl)amino]-5,6-dihydro-4H-imidazo[4,5,1-ij]quinolin-2(1H)-one]
[4]
  D2R selectivity over D3R (D3R/D2R): ~8 fold

## CCCN(CCC)[C@@H]1Cc2cccc3c2n(c(=O)n3CCC)C1 [Compound 15, (R)-5-(Dipropylamino)-1-propyl-5,6-dihydro-4H-imidazo[4,5,1-ij]quinolin-2(1H)-one]
[3]
  Ki: ~3 nM
[4]
  Ki: ~3 nM

Reference: paper PMC4915350 (Journal of Medicinal Chemistry, 2016)
